In PubChem BioAssay AID1259411 (Chemical Carcinogenesis Research Information System (CCRIS), 2018):
Calls of active or inactive are those of the source. How the calls were made is not given here.

System: rodent carcinogenicity bioassays, tumor incidence
Experiment: CCRIS carcinogenicity studies
Procedure, shortened: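 NCI-built, expert-reviewed records of carcinogenicity and related test outcomes (mutagenicity, tumor promotion/inhibition) compiled from published and report sources, historical span 1985-2011, not updated.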

O=C1OC2(c3ccccc31)c1cc(I)c(O)c(I)c1Oc1c2cc(I)c(O)c1I
carcinogen call (Species: MOUSE, Strain/Sex: CD-1/FEMALE, Route: ORAL, Dose: 0, 0.3, 1.0, 3.0% IN DIET FOR 24 MO (STUDY DURATION: 24 MO), Dose: 0, 0.3, 1.0, 3.0% IN DIET FOR 24 MO (STUDY DURATION: 24 MO)): inactive; negative
carcinogen call (Species: MOUSE, Strain/Sex: CD-1/MALE, Route: ORAL, Dose: 0, 0.3, 1.0, 3.0% IN DIET FOR 24 MO (STUDY DURATION: 24 MO), Dose: 0, 0.3, 1.0, 3.0% IN DIET FOR 24 MO (STUDY DURATION: 24 MO)): inactive; negative
carcinogen call (Species: MOUSE, Strain/Sex: ICR/FEMALE, Route: DERMAL, Dose: 0, 1 MG IN 0.1 ML DISTILLED WATER 2/WK FOR A MEAN TOTAL DOSE OF 133 MG (STUDY DURATION: 18 MO)): inactive; negative
carcinogen call (Species: MOUSE, Strain/Sex: ICR/MALE, Route: DERMAL, Dose: 0, 1 MG IN 0.1 ML DISTILLED WATER 2/WK FOR A MEAN TOTAL DOSE OF 133 MG (STUDY DURATION: 18 MO)): inactive; negative
carcinogen call (Species: RAT, Strain/Sex: CD-1/FEMALE, Route: ORAL, Dose: 0, 0.1, 0.5, 1% IN DIET FOR 30 MO BEGINNING IN UTERO WITH PARENTS GIVEN THE SAME DIETARY DOSES (STUDY DURATION: 30 MO), Dose: 0, 0.1, 0.5, 1% IN DIET FOR 30 MO BEGINNING IN UTERO WITH PARENTS GIVEN THE SAME DIETARY DOSES (STUDY DURATION: 30 MO)): inactive; negative
carcinogen call (Species: RAT, Strain/Sex: CD-1/FEMALE, Route: ORAL, Dose: 0, 4% IN DIET FOR 30 MO BEGINNING IN UTERO WITH PARENTS GIVEN THE SAME DIETARY DOSES (STUDY DURATION: 30 MO)): inactive; negative
carcinogen call (Species: RAT, Strain/Sex: CD-1/MALE, Route: ORAL, Dose: 0, 0.1, 0.5, 1% IN DIET FOR 30 MO BEGINNING IN UTERO WITH PARENTS GIVEN THE SAME DIETARY DOSES (STUDY DURATION: 30 MO), Dose: 0, 0.1, 0.5, 1% IN DIET FOR 30 MO BEGINNING IN UTERO WITH PARENTS GIVEN THE SAME DIETARY DOSES (STUDY DURATION: 30 MO)): inactive; negative
carcinogen call (Species: RAT, Strain/Sex: CD-1/MALE, Route: ORAL, Dose: 0, 4% IN DIET FOR 30 MO BEGINNING IN UTERO WITH PARENTS GIVEN THE SAME DIETARY DOSES (STUDY DURATION: 30 MO), Tumor Site: Type of Lesion: THYROID: ADENOMA): active; positive

C#CC(C)(C)NC(=O)c1cc(Cl)cc(Cl)c1
carcinogen call (Species: MOUSE, Strain/Sex: B6C3F1/MALE, Route: ORAL, Dose: 0, 20, 100, 500, 2500 PPM IN DIET FOR 12, 18 OR 24 MO (STUDY DURATION: 24 MO), Dose: 0, 20, 100, 500, 2500 PPM IN DIET FOR 12, 18 OR 24 MO (STUDY DURATION: 24 MO), Tumor Site: Type of Lesion: LIVER: HEPATOCELLULAR CARCINOMA OR ADENOMA): active; positive

c1ccoc1
carcinogen call (Species: MOUSE, Strain/Sex: B6C3F1/FEMALE, Route: GAVAGE, Dose: 0, 8, 15 MG/KG IN CORN OIL 5 D/WK FOR 104 WK (STUDY DURATION: 105 WK), Dose: 0, 8, 15 MG/KG IN CORN OIL 5 D/WK FOR 104 WK (STUDY DURATION: 105 WK), Tumor Site: Type of Lesion: ADRENAL MEDULLA: BENIGN PHEOCHROMOCYTOMA, LIVER: HEPATOCELLULAR ADENOMA, HEPATOCELLULAR CARCINOMA): active; positive
carcinogen call (Species: MOUSE, Strain/Sex: B6C3F1/MALE, Route: GAVAGE, Dose: 0, 8, 15 MG/KG IN CORN OIL 5 D/WK FOR 104 WK (STUDY DURATION: 105 WK), Dose: 0, 8, 15 MG/KG IN CORN OIL 5 D/WK FOR 104 WK (STUDY DURATION: 105 WK), Tumor Site: Type of Lesion: ADRENAL MEDULLA: BENIGN PHEOCHROMOCYTOMA, LIVER: HEPATOCELLULAR ADENOMA, HEPATOCELLULAR CARCINOMA): active; positive
carcinogen call (Species: MOUSE, Strain/Sex: B6C3F1/MALE, Route: INTRAPERITONEAL, Dose: 0, 200 MG/KG BW ONCE EACH ON POSTNATAL DAYS 3, 6, 9, 12, 15 AND 18 (STUDY DURATION: 95 WK), Tumor Site: Type of Lesion: LIVER: ADENOMA OR CARCINOMA): active; positive
carcinogen call (Species: MOUSE, Strain/Sex: B6C3F1/MALE, Route: INTRAPERITONEAL, Dose: 0, 400 MG/KG BW ONCE ON POSTNATAL DAY 15 (STUDY DURATION: 95 WK)): inactive; negative
carcinogen call (Species: RAT, Strain/Sex: B6C3F1/FEMALE, Route: GAVAGE, Dose: 0, 2, 4, 8 MG/KG IN CORN OIL 5 D/WK FOR 103 WK (STUDY DURATION: 104 WK), Dose: 0, 2, 4, 8 MG/KG IN CORN OIL 5 D/WK FOR 103 WK (STUDY DURATION: 104 WK), Tumor Site: Type of Lesion: LIVER: CHOLANGIOCARCINOMA, HEPATOCELLULAR ADENOMA OR CARCINOMA, HEMATOPOIETIC SYSTEM: MONONUCLEAR CELL LEUKEMIA): active; positive
carcinogen call (Species: RAT, Strain/Sex: F344/MALE, Route: GAVAGE, Dose: 0, 2, 4, 8 MG/KG IN CORN OIL 5 D/WK FOR 103 WK (STUDY DURATION: 104 WK), Dose: 0, 2, 4, 8 MG/KG IN CORN OIL 5 D/WK FOR 103 WK (STUDY DURATION: 104 WK), Tumor Site: Type of Lesion: LIVER:CHOLANGIOCARCINOMA, HEPATOCELLULAR ADENOMA, HEPATOCELLULAR CARCINOMA, HEMATOPOIETIC SYSTEM: MONONUCLEAR CELL LEUKE): active; positive

O=CC1CO1 (configuration not stated)
carcinogen call (Species: MOUSE, Route: DERMAL, Tumor Site: Type of Lesion: INTEGUMENTARY SYSTEM (SKIN)): active; positive
carcinogen call (Species: MOUSE, Route: SUBCUTANEOUS, Tumor Site: Type of Lesion: INJECTION SITE): active; positive
